Assay results taken from patent publication US9018175B2 (Takeda GmbH, priority 2009, dated 2015).

Assays:
PDE4B1 = target: T1, PDE4B1 (Homo sapiens, UniProt Q07343); test: Inhibition of PDE4B1 activity (SPA, [3H]cAMP); format: biochemical; conditions: recombinant PDE4B1 expressed in SF21 cells; 0.5 pM [sic] cAMP; values given as bins; read-out: PDE4B1 inhibitory values measured as −logIC50 (converted)
T1 construct: made in house; host or cells: SF21 insect cells (baculovirus; pCR-Bac vector)
Protocol: The PDE4B1 (GB no. L20966) was a gift of Prof. M. Conti (Stanford University, USA). It was amplified from the original plasmid (pCMV5) via PCR with primers Rb18 (5′-[…]-3′) and Rb10 (5′-[…]-3′) and cloned into the pCR-Bac vector (Invitrogen, Groningen, NL).
The recombinant baculovirus was prepared by means of homologous recombination in SF9 insect cells. The expression plasmids were cotransfected with Baculo-Gold DNA (Pharmingen, Hamburg) using a standard protocol (Pharmingen, Hamburg). Wt virus-free recombinant virus supernatants were selected using plaque assay methods. After that, high-titre virus supernatants were prepared by amplifying 3 times. PDE4B1 was expressed in SF21 cells by infecting 2×10^6 cells/ml with an MOI (multiplicity of infection) between 1 and 10 in the serum-free medium Insect Express Sf9-S2 (PAA, Pasching, Austria). The cells were cultured at 28° C. for 48-72 hours, after which they were pelleted for 5-10 min at 1000×g and 4° C.
The SF21 insect cells were resuspended, at a concentration of approx. 10^7 cells/ml, in ice-cold (4° C.) homogenization buffer (20 mM Tris, pH 8.2, containing the following additions: 140 mM NaCl, 3.8 mM KCl, 1 mM EGTA, 1 mM MgCl2, 10 mM e-mercaptoethanol, 2 mM benzamidine, 0.4 mM Pefablock, 10 pM leupeptin, 10 pM pepstatin A, 5 pM trypsin inhibitor) and disrupted by ultrasonication. The homogenate was then centrifuged for 10 min at 1000, g and the supernatant was stored at −80° C. until subsequent use (see below). The protein content was determined by the Bradford method (BioRad, Munich) using BSA as the standard.
PDEB1 activities were measured in a 96-well platform using SPA (scintillation proximity assay) yttrium silicate beads (RPNQ1050 from GE Healthcare). In a first step the PDE activity operates hydrolysis of either [^3H] cAMP (substrate) into [^3H] 5′AMP. In a second step substrate and product are distinguished following addition of SPA yttrium silicate beads. Indeed, in the presence of zinc sulphate the linear [^3H] […] Close proximity of bound [^3H] […] The test volume is 100 pl and contains 20 mM Tris buffer (pH 7.4), 0.1 mg/ml of BSA, 5 mM Mg^2+, […] (including about 50,000 cpm of [3H]cAMP), 1 pl of the respective substance dilution in DMSO and sufficient recombinant PDE (1000, g supernatant, see above) to ensure that 10-20% of the cAMP is converted under the said experimental conditions. […] After a preincubation of 5 min at 37° C., the reaction is started by adding the substrate (cAMP) and the assays are incubated for a further 15 min; after that, they are stopped by adding SPA beads (50 pl). In accordance with the manufacturer's instructions, the SPA beads had previously been resuspended in water, but were then diluted 1:3 (v/v) in water; the diluted solution also contains 3 mM IBMX to ensure a complete PDE activity stop. After the beads have been sedimented (>30 min), the MTP's are analyzed in commercially available luminescence detection devices. The corresponding IC50 values of the compounds for the inhibition of PDE4B1 activity are determined from the concentration-effect curves by means of non-linear regression.

human PDE5 = target: T2, human PDE5 (Homo sapiens, UniProt O76074); test: Inhibition of PDE5 activity (SPA, [3H]cGMP, platelet lysate); format: biochemical; conditions: PDE5 from human platelet lysate; values given as bins; read-out: PDE5A inhibitory values measured as −logIC50 (converted)
T2 construct: from tissue; host or cells: human platelets from fresh donor blood (10,000 g supernatant of sonicated platelets)
Protocol: As a source for human PDE5, platelets are used. For that purpose, 150 ml fresh blood from human donors anticoagulated with citrate [final concentration 0.3% (w/v)] is centrifuged at 200 g for 10 min to obtain the so-called platelet-rich-plasma (PRP) as a supernatant. 1/10 volume of ACD solution (85 mM Na3-citrate, 111 mM D-glucose, 71 mM citric acid, pH 4.4) is added to 9/10 volume of PRP. After centrifugation (1,400 g, 10 min) the cell pellet is resuspended in 3 ml homogenization buffer (NaCl 140 mM, KCl 3.8 mM, EGTA (ethylene glycol tetraacetic acid) 1 mM, MgCl2 1 mM, Tris-HCl 20 mM, beta-mercaptoethanol 1 mM, pH 8.2) plus protease-inhibitor mix giving rise to the final concentrations of 0.5 mM Pefablock (Roche), 10 μM Leupeptin, 5 μM Trypsininhibitor, 2 mM Benzamidin and 10 μM Pepstatin A. The suspension is sonified and thereafter centrifuged for 15 min at 10,000 g. The resulting supernatant (platelet lysate) is used for enzymatic testings.
PDE5 activities were measured in a 96-well platform using SPA (scintillation proximity assay) yttrium silicate beads (RPNQ1050 from GE Healthcare). In a first step the PDE activity operates hydrolysis of either [^3H] cGMP (substrate) into [^3H] 5′GMP. In a second step substrate and product are distinguished following addition of SPA yttrium silicate beads. Indeed, in the presence of zinc sulphate the linear [^3H] […] Close proximity of bound [^3H] […] The test volume is 100 pl and contains 20 mM Tris buffer (pH 7.4), 0.1 mg of BSA (bovine serum albumin)/ml, 5 mM Mg^2+, 1 μM motapizone (PDE3 Inhibitor), 10 nM PDE2 inhibitor 2-(3,4-dimethoxybenzyl)-7-[(1R,2R)-2-hydroxy-1-(2-phenylethyl)propyl]-5-methylimidazo[5,1-f][1,2,4]triazin-4(3H)-one, […] (cyclic guanosine monophosphate) (including about 50,000 cpm of [3H]cGMP as a tracer), 1 pl of the respective compound dilution in dimethylsulfoxide (DMSO) and sufficient PDE5-containing platelet lysat (10,000, g supernatant, see above) to ensure that 10-20 wt % of the cGMP is converted under the said experimental conditions. […] After a preincubation of 5 min at 37° C., the reaction is started by adding the substrate (cGMP) and the assay is incubated for a further 15 min; after that, it is stopped by adding SPA beads (50 pl). In accordance with the manufacturer's instructions, the SPA beads had previously been resuspended in water, but are then diluted 1:3 (v/v) in water; the diluted solution also contains 3 mM […]3-isobutyl-1-methylxanthine (IBMX) to ensure a complete PDE activity stop. After the beads have been sedimented (>30 min), the MTP's are analyzed in commercially available luminescence detection devices. The corresponding IC50 values of the compounds for the inhibition of PDE activity are determined from the concentration-effect curves by means of non-linear regression.

T1 sequence (Q07343 whole entry): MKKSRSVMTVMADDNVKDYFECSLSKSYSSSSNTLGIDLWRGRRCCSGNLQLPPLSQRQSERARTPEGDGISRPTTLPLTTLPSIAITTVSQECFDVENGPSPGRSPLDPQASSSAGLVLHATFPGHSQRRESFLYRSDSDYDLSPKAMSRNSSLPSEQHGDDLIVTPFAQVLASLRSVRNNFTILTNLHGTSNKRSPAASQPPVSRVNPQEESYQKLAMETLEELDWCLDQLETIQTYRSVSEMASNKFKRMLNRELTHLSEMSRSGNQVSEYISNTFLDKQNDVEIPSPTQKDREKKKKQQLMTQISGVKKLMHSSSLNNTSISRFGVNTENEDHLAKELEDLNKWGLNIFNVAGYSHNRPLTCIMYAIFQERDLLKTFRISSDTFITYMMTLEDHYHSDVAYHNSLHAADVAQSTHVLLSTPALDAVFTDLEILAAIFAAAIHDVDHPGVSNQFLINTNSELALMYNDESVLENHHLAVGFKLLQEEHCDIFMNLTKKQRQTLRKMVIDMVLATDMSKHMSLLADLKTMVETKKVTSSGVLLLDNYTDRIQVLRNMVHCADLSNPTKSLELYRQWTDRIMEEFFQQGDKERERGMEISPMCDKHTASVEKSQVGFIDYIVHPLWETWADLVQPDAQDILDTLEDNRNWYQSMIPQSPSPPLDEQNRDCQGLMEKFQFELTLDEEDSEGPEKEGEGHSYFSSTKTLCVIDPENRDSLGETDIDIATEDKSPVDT

Row | IC50 (PDE4B1) | IC50 (human PDE5) | Structure (SMILES)
1 | 1 to 10 nM | < 10 nM | CCOc1cc2c(cc1OC)C(c1ccc(C(=O)N3CCC(n4c(=O)c5sc(-c6ccc7c(c6)OCO7)cc5n(Cc5nnn(CC)n5)c4=O)CC3)cc1)=N[C@@H]1CCSC[C@H]21 [Example 30, 6-(1,3-benzodioxol-5-yl)-3-[1-({4-[(4aR,10bR)-9-ethoxy-8-methoxy-3,4,4a,10b-tetrahydro-1H-thiopyrano[4,3-c]isoquinolin-6-yl]phenyl}carbonyl)piperidin-4-yl]-1-[(2-ethyl-2H-tetrazol-5-yl)methyl]thieno[3,2-d]pyrimidine-2,4(1H,3H)-dione]
2 | 1 to 10 nM | < 10 nM | CCOc1cc2c(cc1OC)C(c1cccc(C(=O)N3CCC(n4c(=O)c5sc(-c6cc(F)ccc6OC)cc5n(Cc5nnn(CC)n5)c4=O)CC3)c1)=N[C@@H]1CCSC[C@H]21 [Example 35, 3-[1-({3-[(4aR,10bR)-9-ethoxy-8-methoxy-3,4,4a,10b-tetrahydro-1H-thiopyrano[4,3-c]isoquinolin-6-yl]phenyl}carbonyl)piperidin-4-yl]-1-[(2-ethyl-2H-tetrazol-5-yl)methyl]-6-(5-fluoro-2-methoxyphenyl)thieno[3,2-d]pyrimidine-2,4(1H,3H)-dione]
3 | > 10 nM | < 10 nM | CCOc1cc2c(cc1OC)C(c1cccc(C(=O)N3CCC(n4c(=O)c5sc(-c6cc(OC)ccc6OC)cc5n(Cc5nnn(CC)n5)c4=O)CC3)c1)=N[C@@H]1CCSC[C@H]21 [Example 37, 6-(2,5-dimethoxyphenyl)-3-[1-({3-[(4aR,10bR)-9-ethoxy-8-methoxy-3,4,4a,10b-tetrahydro-1H-thiopyrano[4,3-c]isoquinolin-6-yl]phenyl}carbonyl)piperidin-4-yl]-1-[(2-ethyl-2H-tetrazol-5-yl)methyl]thieno[3,2-d]pyrimidine-2,4(1H,3H)-dione]
4 | > 10 nM | < 10 nM | CCOc1cc2c(cc1OC)C(c1ccc(C(=O)N3CCC(n4c(=O)c5sc(-c6ccccc6)cc5n(Cc5nnn(CC)n5)c4=O)CC3)cc1)=N[C@@H]1CCS(=O)(=O)C[C@H]21 [Example 19, 3-[1-({4-[(4aR,10bR)-9-ethoxy-8-methoxy-2,2-dioxido-3,4,4a,10b-tetrahydro-1H-thiopyrano[4,3-c]isoquinolin-6-yl]phenyl}carbonyl)piperidin-4-yl]-1-[(2-ethyl-2H-tetrazol-5-yl)methyl]-6-phenylthieno[3,2-d]pyrimidine-2,4(1H,3H)-dione]
5 | 1 to 10 nM | 10 to 100 nM | CCOc1cc2c(cc1OC)C(c1ccc(C(=O)N3CCC(n4c(=O)c5sc(-c6ccc(F)cc6OC)cc5n(Cc5nc(CC)no5)c4=O)CC3)cc1)=N[C@@H]1CCSC[C@H]21 [Example 43, 3-[1-({4-[(4aR,10bR)-9-ethoxy-8-methoxy-3,4,4a,10b-tetrahydro-1H-thiopyrano[4,3-c]isoquinolin-6-yl]phenyl}carbonyl)piperidin-4-yl]-1-[(3-ethyl-1,2,4-oxadiazol-5-yl)methyl]-6-(4-fluoro-2-methoxyphenyl)thieno[3,2-d]pyrimidine-2,4(1H,3H)-dione]
6 | 1 to 10 nM | > 100 nM | CCOc1cc2c(cc1OC)C(c1ccc(C(=O)N3CCC(n4c(=O)c5sc(-c6ccccc6)cc5n(Cc5sccc5C)c4=O)CC3)cc1)=N[C@@H]1CCSC[C@H]21 [Example 56, 3-[1-({4-[(4aR,10bR)-9-ethoxy-8-methoxy-3,4,4a,10b-tetrahydro-1H-thiopyrano[4,3-c]isoquinolin-6-yl]phenyl}carbonyl)piperidin-4-yl]-1-[(3-methylthiophen-2-yl)methyl]-6-phenylthieno[3,2-d]pyrimidine-2,4(1H,3H)-dione]
7 | 1 to 10 nM | < 10 nM | CCOc1cc2c(cc1OC)C(c1ccc(C(=O)N3CCC(n4c(=O)c5sc(-c6ccc(F)cc6)cc5n(Cc5nc(CC)no5)c4=O)CC3)cc1)=N[C@@H]1CCSC[C@H]21 [Example 47, 3-[1-({4-[(4aR,10bR)-9-ethoxy-8-methoxy-3,4,4a,10b-tetrahydro-1H-thiopyrano[4,3-c]isoquinolin-6-yl]phenyl}carbonyl)piperidin-4-yl]-1-[(3-ethyl-1,2,4-oxadiazol-5-yl)methyl]-6-(4-fluorophenyl)thieno[3,2-d]pyrimidine-2,4(1H,3H)-dione]
8 | > 10 nM | < 10 nM | CCOc1cc2c(cc1OC)C(c1ccc(C(=O)N3CCC(n4c(=O)c5sc(-c6ccccc6F)cc5n(Cc5nnn(CC)n5)c4=O)CC3)cc1)=N[C@@H]1CCSC[C@H]21 [Example 38, 3-[1-({4-[(4aR,10bR)-9-ethoxy-8-methoxy-3,4,4a,10b-tetrahydro-1H-thiopyrano[4,3-c]isoquinolin-6-yl]phenyl}carbonyl)piperidin-4-yl]-1-[(2-ethyl-2H-tetrazol-5-yl)methyl]-6-(2-fluorophenyl)thieno[3,2-d]pyrimidine-2,4(1H,3H)-dione]
9 | 1 to 10 nM | 10 to 100 nM | CCOc1cc2c(cc1OC)C(c1ccc(C(=O)N3CCC(n4c(=O)c5sc(-c6ccccc6)cc5n(Cc5cnc(CC)o5)c4=O)CC3)cc1)=N[C@@H]1CCSC[C@H]21 [Example 9, 3-[1-({4-[(4aR,10bR)-9-ethoxy-8-methoxy-3,4,4a,10b-tetrahydro-1H-thiopyrano[4,3-c]isoquinolin-6-yl]phenyl}carbonyl)piperidin-4-yl]-1-[(2-ethyl-1,3-oxazol-5-yl)methyl]-6-phenylthieno[3,2-d]pyrimidine-2,4(1H,3H)-dione]
